The values that follow are results of earlier work, collected in patent US6376534B1, “Compounds useful in pain management” (Astrazeneca Canada Inc., priority 1998, dated 2002).

The target of one series is δ receptor (Homo sapiens, UniProt P41143). The settings on record: background statement.
The conditions of series [1]: background statement.

Chain of δ receptor (P41143 whole entry): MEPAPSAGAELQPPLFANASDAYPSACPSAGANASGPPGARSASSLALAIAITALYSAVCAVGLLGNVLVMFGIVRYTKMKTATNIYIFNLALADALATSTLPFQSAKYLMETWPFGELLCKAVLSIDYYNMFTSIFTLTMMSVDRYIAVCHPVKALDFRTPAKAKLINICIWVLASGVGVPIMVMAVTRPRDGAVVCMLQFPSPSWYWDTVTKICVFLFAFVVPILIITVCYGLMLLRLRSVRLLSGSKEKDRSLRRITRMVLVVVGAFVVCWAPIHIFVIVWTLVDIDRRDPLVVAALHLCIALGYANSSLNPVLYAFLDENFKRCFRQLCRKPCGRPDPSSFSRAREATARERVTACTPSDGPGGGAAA

In the case of `Oc1ccc2c3c1O[C@H]1c4[nH]c5ccccc5c4C[C@@]4(O)[C@@H](C2)N(CC2CC2)CC[C@]314` [naltrindole], the “selectivity for the δ receptor vs. μ receptor binding” value at δ receptor is under 10 fold. In addition, in series [1], the analgesic activity result is on record as “no analgesic activity”.
